We go through ten compounds from ChEMBL document CHEMBL1201862, “PubChem BioAssay data set” (2004).

SMILES strings stand for the structures. Calls of active or inactive are those of the source.

Data set [1] concerns the target T1, Mannose-6-phosphate isomerase (Homo sapiens, UniProt P34949).
T1 sequence (P34949 whole entry): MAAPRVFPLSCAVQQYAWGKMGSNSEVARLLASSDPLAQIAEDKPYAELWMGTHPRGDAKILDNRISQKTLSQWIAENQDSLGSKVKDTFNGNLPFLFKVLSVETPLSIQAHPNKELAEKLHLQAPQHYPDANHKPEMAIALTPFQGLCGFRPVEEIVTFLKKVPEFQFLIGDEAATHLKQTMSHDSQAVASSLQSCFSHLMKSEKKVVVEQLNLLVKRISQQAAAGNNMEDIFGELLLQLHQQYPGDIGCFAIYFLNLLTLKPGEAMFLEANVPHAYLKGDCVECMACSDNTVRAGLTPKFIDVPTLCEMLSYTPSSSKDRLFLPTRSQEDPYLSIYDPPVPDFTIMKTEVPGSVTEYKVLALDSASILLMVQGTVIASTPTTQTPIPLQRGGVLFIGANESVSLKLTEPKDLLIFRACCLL
As to the kind of experiment: inhibitors of human PMI, primary screen, biochemical, fluorescence intensity, coupled assay (AID 1209).

For data set [2], the target named is T1, Mannose-6-phosphate isomerase. As to the kind of experiment: PMI enzyme inhibitors, confirmation, biochemical, fluorescence intensity (AID 1535).
In data set [3] the target is T2, High affinity choline transporter 1 (Homo sapiens, UniProt Q9GZV3).
T2 sequence (Q9GZV3 whole entry): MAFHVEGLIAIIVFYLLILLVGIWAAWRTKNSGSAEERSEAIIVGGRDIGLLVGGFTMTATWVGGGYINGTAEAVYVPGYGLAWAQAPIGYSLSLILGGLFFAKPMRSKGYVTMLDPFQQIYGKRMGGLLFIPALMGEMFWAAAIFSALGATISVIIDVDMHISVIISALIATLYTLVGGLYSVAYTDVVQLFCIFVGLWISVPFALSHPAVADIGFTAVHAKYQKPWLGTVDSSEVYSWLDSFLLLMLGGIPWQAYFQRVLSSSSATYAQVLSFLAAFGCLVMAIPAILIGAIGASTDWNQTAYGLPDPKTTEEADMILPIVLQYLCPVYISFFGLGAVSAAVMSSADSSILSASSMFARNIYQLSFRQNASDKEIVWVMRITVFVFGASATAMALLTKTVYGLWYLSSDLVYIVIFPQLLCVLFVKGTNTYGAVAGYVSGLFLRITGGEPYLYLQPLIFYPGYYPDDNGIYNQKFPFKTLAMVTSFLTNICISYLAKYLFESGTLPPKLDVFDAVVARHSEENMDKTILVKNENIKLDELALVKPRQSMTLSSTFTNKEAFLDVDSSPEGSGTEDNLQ
As to the kind of experiment: CHT inhibitors, dose response, cell-based, 5-point CRC, membrane potential dye (AID 504840). Format: functional.

Data set [4] concerns the target T3, Phosphomannomutase 2 (Homo sapiens, UniProt O15305).
T3 sequence (O15305 whole entry): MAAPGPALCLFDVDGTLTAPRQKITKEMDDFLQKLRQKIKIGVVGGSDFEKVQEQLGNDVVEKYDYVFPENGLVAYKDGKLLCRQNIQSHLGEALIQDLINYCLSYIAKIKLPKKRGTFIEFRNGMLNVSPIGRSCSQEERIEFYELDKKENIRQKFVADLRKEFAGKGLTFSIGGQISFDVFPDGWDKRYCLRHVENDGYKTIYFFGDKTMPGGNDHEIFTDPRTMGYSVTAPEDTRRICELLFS
As to the kind of experiment: Counter screen SAR assay for PMM2 inhibitors via a fluorescence intensity assay. [Related pubchem assays (depositor defined):AID1545, AID1574].

The target in data set [5] is T4, Leucine aminopeptidase (Plasmodium falciparum 3D7, UniProt Q8IL11).
T4 sequence (Q8IL11 whole entry): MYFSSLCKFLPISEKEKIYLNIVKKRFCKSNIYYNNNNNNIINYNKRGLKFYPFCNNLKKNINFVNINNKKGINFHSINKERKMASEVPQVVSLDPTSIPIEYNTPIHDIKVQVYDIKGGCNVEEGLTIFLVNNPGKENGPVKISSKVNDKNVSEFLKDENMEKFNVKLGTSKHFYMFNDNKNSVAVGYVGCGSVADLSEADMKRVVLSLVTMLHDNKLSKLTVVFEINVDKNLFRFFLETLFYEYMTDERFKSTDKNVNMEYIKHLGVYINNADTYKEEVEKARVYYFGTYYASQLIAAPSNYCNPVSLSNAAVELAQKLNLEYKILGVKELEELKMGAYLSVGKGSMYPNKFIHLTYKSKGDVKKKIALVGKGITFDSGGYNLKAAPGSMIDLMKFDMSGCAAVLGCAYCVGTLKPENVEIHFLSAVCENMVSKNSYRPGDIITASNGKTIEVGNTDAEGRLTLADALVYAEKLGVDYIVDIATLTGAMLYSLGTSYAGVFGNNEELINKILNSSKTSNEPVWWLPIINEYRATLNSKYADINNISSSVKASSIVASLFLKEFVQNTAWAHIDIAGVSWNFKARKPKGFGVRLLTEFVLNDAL
As to the kind of experiment: P. falciparum M17LAP inhibitors, primary screen, biochemical, fluorogenic H-Leu-NHMec substrate, 1536-well (AID 1619). Format: functional.

Data set [6] has as its system Escherichia coli. As to the kind of experiment: microbe, parasite or virus in culture.
Data set [7] deals with UDP-galactopyranose mutase (Mycobacterium tuberculosis, UniProt P9WIQ1). As to the kind of experiment: Inhibitors of Mycobacterium tuberculosis UDP-galactopyranose mutase (UGM) enzyme Measured in Biochemical System Using Plate Reader - 2105-02_Inhibitor_Dose_CherryPick_Activity. [Related pubchem assays (depositor defined):AID504439].
Data set [8] deals with T5, Corticotropin-releasing factor receptor 2/Corticotropin-releasing factor-binding protein (Homo sapiens, UniProt P24387+Q13324).
T5 sequence (Q13324 whole entry): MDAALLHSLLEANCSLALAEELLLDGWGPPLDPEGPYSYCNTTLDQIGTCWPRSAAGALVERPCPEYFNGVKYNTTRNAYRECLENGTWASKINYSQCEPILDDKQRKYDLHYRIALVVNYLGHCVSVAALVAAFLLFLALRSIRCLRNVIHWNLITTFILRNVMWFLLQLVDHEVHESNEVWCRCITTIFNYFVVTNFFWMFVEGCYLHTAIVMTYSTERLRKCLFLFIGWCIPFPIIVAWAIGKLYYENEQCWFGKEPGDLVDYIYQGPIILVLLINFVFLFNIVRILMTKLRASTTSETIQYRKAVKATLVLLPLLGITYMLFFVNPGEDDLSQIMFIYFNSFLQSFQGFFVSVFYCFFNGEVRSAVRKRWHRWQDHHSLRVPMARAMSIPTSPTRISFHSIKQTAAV
T5 sequence (P24387 whole entry): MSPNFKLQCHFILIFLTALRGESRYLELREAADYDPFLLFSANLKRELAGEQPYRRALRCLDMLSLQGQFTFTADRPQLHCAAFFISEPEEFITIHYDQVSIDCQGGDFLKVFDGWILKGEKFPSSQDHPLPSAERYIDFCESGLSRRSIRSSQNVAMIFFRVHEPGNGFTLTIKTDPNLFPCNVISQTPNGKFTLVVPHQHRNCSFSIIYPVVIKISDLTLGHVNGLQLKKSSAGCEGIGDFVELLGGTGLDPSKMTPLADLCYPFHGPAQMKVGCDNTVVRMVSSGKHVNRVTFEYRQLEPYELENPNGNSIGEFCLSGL
As to the kind of experiment: activators of CRF receptor 2 with binding protein – uHTS hits, confirmation (AID 602473). It counts as functional. The settings on record: read-out: EC50_Mean.

The test system of data set [9] is HeLa. As to the kind of experiment: HeLa cell cytotoxicity, dose response, cytotoxicity control for MITF activator project, CellTiter-Glo luminescence, cherry-pick samples (AID 540259). Format: functional, cell-based. The conditions noted are these: Homo sapiens.
In data set [10] the target is Glucose-6-phosphate 1-dehydrogenase (Homo sapiens, UniProt P11413). As to the kind of experiment: human G6PD enzyme inhibitors, dose response, selectivity assay for P. falciparum G6PD inhibitor project, biochemical, fluorescence (AID 504792). Format: functional.
The target of data set [11] is T6, Rac GTPase-activating protein 1 (Homo sapiens, UniProt Q9H0H5).
T6 sequence (Q9H0H5 whole entry): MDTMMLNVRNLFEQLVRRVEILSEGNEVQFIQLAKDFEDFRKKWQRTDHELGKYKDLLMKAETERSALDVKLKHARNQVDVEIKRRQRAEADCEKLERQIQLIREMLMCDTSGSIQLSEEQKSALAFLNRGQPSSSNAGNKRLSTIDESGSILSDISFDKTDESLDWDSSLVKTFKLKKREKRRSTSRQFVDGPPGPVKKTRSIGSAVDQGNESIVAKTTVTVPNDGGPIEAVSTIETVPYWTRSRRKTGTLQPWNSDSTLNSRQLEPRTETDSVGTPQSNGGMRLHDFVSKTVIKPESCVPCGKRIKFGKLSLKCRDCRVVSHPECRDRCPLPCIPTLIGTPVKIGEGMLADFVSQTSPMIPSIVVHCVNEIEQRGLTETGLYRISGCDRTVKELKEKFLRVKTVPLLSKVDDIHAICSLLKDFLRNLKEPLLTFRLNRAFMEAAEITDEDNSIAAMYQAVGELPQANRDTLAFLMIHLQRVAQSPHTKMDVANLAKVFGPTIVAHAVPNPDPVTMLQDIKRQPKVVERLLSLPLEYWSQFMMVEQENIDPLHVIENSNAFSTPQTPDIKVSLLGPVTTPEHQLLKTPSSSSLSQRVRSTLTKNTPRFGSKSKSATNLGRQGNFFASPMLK
As to the kind of experiment: MgcRacGAP GTPase-activating activity inhibitors, confirmation, biochemical, ADP Hunter fluorescence, primary and confirmatory (AID 624330). Format: functional.

Data set [12] deals with Cytochrome P450 2D6 (Homo sapiens, UniProt P10635).
In data set [13] the target is Cytochrome P450 2C9 (Homo sapiens, UniProt P11712).
For data set [14], the target named is FAD-linked sulfhydryl oxidase ALR (Homo sapiens, UniProt P55789). As to the kind of experiment: inhibitors of human ALR sulfhydryl oxidase, dose response, biochemical, H2O2 detection, luminescence, cherry-pick (AID 493248).
Sequence of FAD-linked sulfhydryl oxidase ALR (P55789 whole entry): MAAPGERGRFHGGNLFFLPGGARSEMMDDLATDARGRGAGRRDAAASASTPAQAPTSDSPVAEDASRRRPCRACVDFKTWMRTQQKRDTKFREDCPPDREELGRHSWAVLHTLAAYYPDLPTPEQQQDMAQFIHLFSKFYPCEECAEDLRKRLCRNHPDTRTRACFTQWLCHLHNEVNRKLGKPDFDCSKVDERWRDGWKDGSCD

Sequence of Glucose-6-phosphate 1-dehydrogenase (P11413 whole entry): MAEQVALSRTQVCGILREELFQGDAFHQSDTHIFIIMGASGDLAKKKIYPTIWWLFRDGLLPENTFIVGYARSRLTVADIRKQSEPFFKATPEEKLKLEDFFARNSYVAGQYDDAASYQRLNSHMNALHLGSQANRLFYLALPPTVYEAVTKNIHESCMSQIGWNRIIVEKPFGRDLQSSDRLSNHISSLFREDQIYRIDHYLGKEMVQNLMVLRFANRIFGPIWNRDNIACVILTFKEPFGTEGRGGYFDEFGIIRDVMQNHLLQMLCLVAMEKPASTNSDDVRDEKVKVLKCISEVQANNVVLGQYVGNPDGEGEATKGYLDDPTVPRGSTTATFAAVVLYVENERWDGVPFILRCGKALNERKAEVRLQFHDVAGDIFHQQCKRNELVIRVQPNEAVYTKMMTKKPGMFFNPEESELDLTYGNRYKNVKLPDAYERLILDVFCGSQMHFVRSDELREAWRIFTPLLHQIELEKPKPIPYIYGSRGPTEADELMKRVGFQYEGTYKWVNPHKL
Sequence of UDP-galactopyranose mutase (P9WIQ1 whole entry): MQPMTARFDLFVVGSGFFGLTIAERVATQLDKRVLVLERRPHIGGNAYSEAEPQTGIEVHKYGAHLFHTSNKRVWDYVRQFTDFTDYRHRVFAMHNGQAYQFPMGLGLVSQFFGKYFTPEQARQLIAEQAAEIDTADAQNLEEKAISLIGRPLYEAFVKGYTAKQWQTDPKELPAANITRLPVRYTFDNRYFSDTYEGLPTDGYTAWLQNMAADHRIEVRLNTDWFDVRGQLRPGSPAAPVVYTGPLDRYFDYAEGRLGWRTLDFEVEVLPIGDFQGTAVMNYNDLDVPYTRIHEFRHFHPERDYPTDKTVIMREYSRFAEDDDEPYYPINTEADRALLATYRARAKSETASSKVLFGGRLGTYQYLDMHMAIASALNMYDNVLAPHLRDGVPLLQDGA
Sequence of Cytochrome P450 2C9 (P11712 whole entry): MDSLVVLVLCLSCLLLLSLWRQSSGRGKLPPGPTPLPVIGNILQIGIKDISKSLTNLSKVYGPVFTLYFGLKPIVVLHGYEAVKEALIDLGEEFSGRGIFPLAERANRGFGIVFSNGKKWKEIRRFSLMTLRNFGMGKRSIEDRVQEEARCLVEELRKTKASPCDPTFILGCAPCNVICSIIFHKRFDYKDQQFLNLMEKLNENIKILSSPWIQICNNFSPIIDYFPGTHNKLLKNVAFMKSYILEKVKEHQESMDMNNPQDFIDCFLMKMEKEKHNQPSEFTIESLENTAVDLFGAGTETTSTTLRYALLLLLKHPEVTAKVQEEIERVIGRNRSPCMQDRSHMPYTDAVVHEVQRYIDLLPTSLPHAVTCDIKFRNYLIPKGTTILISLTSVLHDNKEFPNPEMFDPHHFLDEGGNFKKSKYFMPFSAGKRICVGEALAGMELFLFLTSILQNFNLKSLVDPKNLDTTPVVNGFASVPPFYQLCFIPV
Sequence of Cytochrome P450 2D6 (P10635 whole entry): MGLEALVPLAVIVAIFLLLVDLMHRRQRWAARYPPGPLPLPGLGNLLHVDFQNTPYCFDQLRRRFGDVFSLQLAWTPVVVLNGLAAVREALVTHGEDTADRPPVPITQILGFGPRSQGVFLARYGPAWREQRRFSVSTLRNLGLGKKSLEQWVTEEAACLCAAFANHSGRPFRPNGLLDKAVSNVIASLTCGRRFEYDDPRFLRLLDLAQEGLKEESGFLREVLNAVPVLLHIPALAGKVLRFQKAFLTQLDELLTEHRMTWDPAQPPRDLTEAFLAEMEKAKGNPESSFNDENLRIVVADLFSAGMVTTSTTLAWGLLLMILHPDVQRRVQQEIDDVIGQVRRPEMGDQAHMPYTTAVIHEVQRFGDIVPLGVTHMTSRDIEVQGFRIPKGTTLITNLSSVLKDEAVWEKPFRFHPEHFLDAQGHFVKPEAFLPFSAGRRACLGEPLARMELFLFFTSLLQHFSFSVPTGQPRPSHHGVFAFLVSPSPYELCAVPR

Turning to `CC(C)(C)c1ccc(C(=O)CSc2nnc[nH]2)cc1`, the IC50 in [1] was 6.08 µM (active); in [2] it was > 50 µM (inactive); in data set [3], 13.2 µM (active); in [4] it was > 100 µM (inactive); in data set [5] it was 46 µM (active).
For the compound `Cc1ccc(O)c(C(=O)c2coc(=N)c(C(=O)NC(C)C)c2)c1`, the AC50 in [6] is 23.8 µM (active). The IC50 in [5] was 4.66 µM (active).
As for `N#C/C(=C\C=C\c1ccccc1)c1nc(-c2ccc3c(c2)OCO3)cs1`, the AC50 in [7] was 38.5 µM (active). In addition, in data set [8], the EC50 was 9.03 µM (active).
As for `CCCC(=O)Nc1ccc(NC(=O)c2ccccn2)cn1`, the AC50 in data set [6] is 58.3 µM (active).
As to `COc1ccc(OCc2cc(C(=O)NC(C)c3cnn(C)c3)no2)c(Cl)c1` (stereo not given), in [9], the AC50 was 79.6 µM (active).
Regarding `O=C1CCN(c2ccccc2)N1` [PHENIDONE], the values for the IC50 in [10] and in [11] were 42.1 µM (inactive) and 46.5 µM (active), respectively.
Consider `O=C(NCCc1ccc(O)cc1)c1ccc(Cl)cc1`, for which the AC50 is 99 µM (active) in data set [9], 25.1 µM (inconclusive) in data set [12], “inconclusive” in data set [13] and 6.24 µM (active) in [14].
Turning to `COc1ccccc1NC(=S)NC(=O)C(C)C`, the half-maximal activity concentration (AC50) in data set [6] is 50.3 µM (active).
On to `O=C(c1cnn2ccccc12)N1CCc2ccccc21`, for which the AC50 in data set [9] is 58.6 µM (active).
As for `COc1cc(-c2nnc3n2N=C(c2ccccc2)CS3)cc(OC)c1OC`, in [10], the IC50 was > 80 µM (inactive).

One may read the IC50 as the concentration that inhibits the measured activity by half. A word on the AC50: it is the midpoint of the concentration-response curve, whichever way the signal moves.
